Laboratory results taken from article doi:10.1101/2025.07.07.663466v1 (biorxiv, 2025).

Target: M. tuberculosis GroEL1 (Cpn60.1) (Mycobacterium tuberculosis, UniProt P9WPE9)
Sequence (P9WPE9 2-539 limits assumed): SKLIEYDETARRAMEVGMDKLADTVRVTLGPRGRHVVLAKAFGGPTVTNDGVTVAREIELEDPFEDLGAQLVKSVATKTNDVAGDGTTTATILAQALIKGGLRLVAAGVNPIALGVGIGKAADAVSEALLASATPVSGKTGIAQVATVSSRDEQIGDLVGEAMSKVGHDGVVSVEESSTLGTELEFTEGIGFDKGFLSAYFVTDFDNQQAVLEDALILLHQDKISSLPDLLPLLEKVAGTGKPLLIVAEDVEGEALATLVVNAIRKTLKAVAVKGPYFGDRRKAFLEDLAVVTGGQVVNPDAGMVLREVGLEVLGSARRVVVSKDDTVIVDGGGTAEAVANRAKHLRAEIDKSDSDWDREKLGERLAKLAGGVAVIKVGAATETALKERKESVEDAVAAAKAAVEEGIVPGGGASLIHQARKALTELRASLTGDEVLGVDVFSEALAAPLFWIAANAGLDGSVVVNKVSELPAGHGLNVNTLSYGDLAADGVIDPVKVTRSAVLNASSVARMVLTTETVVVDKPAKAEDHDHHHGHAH

## CCC(=O)SCCNC(=O)CCNC(=O)[C@H](O)C(C)(C)COP(=O)(O)OP(=O)(O)OC[C@H]1O[C@@H](n2cnc3c(N)ncnc32)[C@H](O)[C@@H]1OP(=O)(O)O [propionyl-CoA]
  auto-propionylation, anti-propionyllysine enrichment and MS/MS: Using propionyl-CoA as a substrate
